The values that follow come from US10077289B2, “Cyclosporins modified on the MeBmt sidechain by heterocyclic rings” (priority 2015, dated 2018).

Each structure is given as a SMILES string. In brackets after ≈: the same amount, converted by molar mass. Like-named read-outs stand apart in the source and are kept apart here.

Data set [1] deals with Human recombinant cyclophilin A (Cyp A) (Homo sapiens (Human), UniProt P62937). The experiment in a line: Protease-free PPIase assay. As to the method:
Protease-Free PPIase Assay
The protease-free PPIase assay measures the rate of cis to trans conversion of a peptide substrate catalyzed by the enzyme cyclophilin A. Addition of a cyclophilin A inhibitor (e.g., a test compound) slows the catalyzed rate and a Ki value is obtained.
35 mM HEPES pH 7.8, filtered through a 0.2 μm filter. 50 μM DTT was added prior to use each day and then the buffer was stored on ice.
Human recombinant cyclophilin A (Cyp A) (Sigma C3805) enzyme was diluted to 1 μM with enzyme dilution buffer (20 mM HEPES pH 7.8, 40% glycerol, 50 μM DTT and 1 μM BSA) and stored at −20° C.
Succinimide-Ala-Ala-Pro-Phe-p-nitroanilide (SUC-AAPF-pNA) (from Bachem AG, L-1400), 20 mg/ml prepared in 0.5 M LiCl in trifluoroethanol.
The temperature is monitored by the use of a temperature probe. To prevent UV degradation of test compounds, the light below 290 nm was blocked using a glass slide in the light path. 1.5 ml of the assay buffer was put into a 3 ml quartz cuvette and cooled to 10.0±0.1° C. while stirring (vigorous but not so fast as to produce cavitation). The inhibitor was diluted in 100% DMSO, and then added to the assay to a maximum final concentration of 0.5% DMSO in the assay. A blank spectrum was obtained, then 3 μL of enzyme was added (2 nM final concentration) and then 3 μL substrate (60 μM final concentration) added. The absorbance was measured at 330 nm for 300 s or 500 s for blank runs (NOTE: the substrate must be added in one quick injection and the measurements started immediately to minimize mixing errors).
A first order rate equation was fitted to the absorbance data, for each concentration of inhibitor, to obtain the rate constant (the first 10 to 15 seconds were excluded as mixing causes errors in this portion of curve). The catalytic rate was calculated from the enzymatic rate constant minus the background rate constant. An exponential curve was generated using the catalytic rate constants versus the inhibitor concentration to obtain the Ki value for the inhibitor. The Ki value is indicative of the binding affinity between the test compound and cyclophilin A.

Data set [2] deals with calcineurin/cyclophilin A (Homo sapiens (Human), UniProt P62937+P63098+Q08209). As to the kind of experiment: Calcineurin Phosphatase (CaN) Assay (+CypA). Type of data set: biochemical. The following applies: in the presence of Cyp A, 1:1 complex with inhibitor; read-out: Calcineurin Phosphatase (CaN) Assay (+CypA) IC50. The text has this: Calcineurin Phosphatase (CaN) Assay
The calcineurin phosphatase assay is a means for estimating the immunosuppressive potential of a test compound. Calcineurin is a serine-threonine protein phosphatase that on activation dephosphorylates members of the nuclear factor of activated T cells (NFAT), which are important in T lymphocyte activation.
To investigate the immunosuppressive potential of exemplary compounds of Formula I, which are cyclosporin analogs, their ability to inhibit calcineurin activity was measured in the presence and absence of Cyp A.
The CaN assay kit used is based on a colorimetric assay for measuring calcineurin phosphatase activity, and it is commercially available (Enzo Life Sciences and Calbiochem). Calmodulin is also required for calcineurin activity and RII phosphopeptide is used as an efficient peptide substrate for calcineurin. […] The detection of free phosphate released is based on the classic Malachite green assay.
Enzo Life Sciences CaN Assay Kit: BML-AK804
Malachite Green: BIOMOL Green™ reagent
Calmodulin (Human, recombinant): was thawed on ice, diluted 1:50 with 2× assay buffer, and then stored on ice.
Calcineurin: was thawed quickly, stored on ice immediately, diluted 1:12.5 with 1× assay buffer, and then stored on ice.
R-II Substrate: 915 μL ultrapure water (UPW) was added to the 1.5 mg vial substrate to give a final concentration of 0.75 mM.
Inhibitors: 2.5 mM inhibitor in 100% DMSO.
Cyp A: recombinant human CypA (Sigma C3805), 1 mg/ml; Recombinant 6-His tagged CypA prepared by the University of Edinburgh was also used.
Inhibitor dilutions: inhibitor compounds were diluted in UPW in polypropylene low-binding 96 well plates at 5× the final assay concentration.
Assay Setup: using the half area 96 well plates supplied with the kit, 10 μl UPW was added to duplicate wells to provide the non-inhibited control. 10 μl of the inhibitor or the inhibitor/Cyp A complex was added to the appropriate sample wells. 25 μl of the 2× assay buffer with CaM was added to all wells, then 5 μl of CaN was added to all wells (40 U per well final concentration) except duplicate ‘no calcineurin blank’ wells to which 5 μL 1× assay buffer was added. The assay plate was placed in an oven at 30° C. for 15 minutes to equilibrate to the reaction temperature. The reaction was started by the addition of 10 μl RII-peptide (0.15 mM final concentration). The reaction was allowed to proceed at 30° C. for a time period in which the reaction is linear for about 60 minutes. The reaction was then terminated by adding 100 μl of the Malachite Green reagent. The color was allowed to develop for 15-30 minutes at room temperature before the absorbance at 620 nm was measured using a plate reader (Molecular Devices—SpectraMax M5). The data were analyzed by subtracting ‘no Calcineurin blank’ from all the absorbance readings and plotting the background corrected absorbances against Log10 inhibitor concentration. A sigmoidal-dose response curve was fitted to the data using GraphPad Prism Software.
It exerts its immunosuppressive activity by binding to cyclophilin A to form a complex, which then binds to calcineurin and thereby inhibits calcineurin activity.

The nature of data set [3]: Water Solubility Assay (measured in pH 7.8 buffer). Type of data set: physicochemical. The following applies: 25 °C, pH 7.8, aqueous buffer, kinetic from dmso stock. As to the method: Water Solubility Assay (Measured in pH 7.8 Buffer)
The aqueous solubility of a compound of Formula I in buffer (pH 7.8) was measured by recording the onset of precipitation of the compound as a function of increasing concentration. The onset of precipitation, if it occurred, was detected by an increase in absorbance at 650 nm.
Assay Buffer: 35 mM HEPES pH 7.8
Stock solutions of Control and Test Compounds: 10 mM in 100% DMSO.
10 mM stock solutions of control and test compounds were prepared in 100% DMSO.
Assay buffer (247.5 μl) was placed into flat bottomed transparent 96-well plate. For blank samples DMSO (2.5 μl) was added. For test and control samples 2.5 μl of the appropriate DMSO dilution stocks were added to the appropriate well. All test and control compounds were performed in triplicate.
The plates were sealed with adhesive plate seal and shaken at 250 rpm at 25° C. for 18 h on a plate shaker. After incubation the plate seals were taken off and any bubbles observed in wells removed. The plates were read on a SpectraMaxM5 with a 5 s pre-shake at 650 nm. Data files were transferred to the appropriate worksheet and the solubility range of the compounds was calculated from the data. The values shown in the Tables indicate the concentration in μM (micromolar) at which the compound remains in solution.

The term Ki denotes the equilibrium dissociation constant of an inhibitor or competing ligand from its target. By IC50 is commonly meant the concentration at which inhibition is half-maximal. What is called solubility is the concentration that dissolves in the medium under given conditions. A higher solubility goes with a readily soluble substance. Consider `CC[C@H]1NC(=O)[C@@H]([C@H](O)[C@H](C)CCOc2ncccn2)N(C)C(=O)[C@@H](C(C)C)N(C)C(=O)[C@@H](CC(C)C)N(C)C(=O)[C@@H](CC(C)C)N(C)C(=O)[C@H](C)NC(=O)[C@@H](C)NC(=O)[C@@H](CC(C)C)N(C)C(=O)[C@@H](C(C)C)NC(=O)[C@H](CC(C)C)N(C)C(=O)[C@@H](C)N(C)C1=O` [Compound 36, [(2S,3R,4R)-3-Hydroxy-4-methyl-2-(methylamino)-6-(pyrimidin-2-yloxy)-hexanoic acid]^1 cyclosporin A], for which, in data set [1], the Ki is 7.7 nM. In data set [2], the IC50 came to 1260 nM. Further, the solubility at 18 h in data set [3] was above 100 µM.

In the case of `CC[C@H]1NC(=O)[C@@H]([C@H](O)[C@H](C)CCCc2ccncc2)N(C)C(=O)[C@@H](C(C)C)N(C)C(=O)[C@@H](CC(C)C)N(C)C(=O)[C@@H](CC(C)C)N(C)C(=O)[C@H](C)NC(=O)[C@@H](C)NC(=O)[C@@H](CC(C)C)N(C)C(=O)[C@@H](C(C)C)NC(=O)[C@H](CC(C)C)N(C)C(=O)[C@@H](COC)N(C)C1=O` [Compound 33], in data set [1], the inhibition constant (Ki) turned out to be 3.1 nM. Further, the IC50 in data set [2] was determined as 2390 nM. For the same compound, in data set [3], the solubility at 18 h is 75 to 100 µM (≈ 98.4 to 131 µg/mL).

With `CC[C@H]1NC(=O)[C@@H]([C@H](O)[C@H](C)CCCc2ccccn2)N(C)C(=O)[C@@H](C(C)C)N(C)C(=O)[C@@H](CC(C)C)N(C)C(=O)[C@@H](CC(C)C)N(C)C(=O)[C@H](C)NC(=O)[C@@H](C)NC(=O)[C@@H](CC(C)C)N(C)C(=O)[C@@H](C(C)C)NC(=O)[C@H](CC(C)C)N(C)C(=O)CN(C)C1=O` [Compound 29, [(2S,3R,4R)-3-Hydroxy-4-methyl-2-(methylamino)-7-(pyridine-2-yl)-heptanoic acid]^1 cyclosporin A], the inhibition constant (Ki) in data set [1] (read-out: Protease-free PPIase Assay Ki, human recombinant Cyp A, 10 °C) worked out at 11 nM. In addition, the half-maximal inhibitory concentration (IC50) in data set [2] is 2650 nM. The same compound showed a solubility at 18 h in data set [3] of 50 to 75 µM (≈ 63.4 to 95.1 µg/mL).

As to `CC[C@H]1NC(=O)[C@@H]([C@H](O)[C@H](C)CCCc2cn(C)cn2)N(C)C(=O)[C@@H](C(C)C)N(C)C(=O)[C@@H](CC(C)C)N(C)C(=O)[C@@H](CC(C)C)N(C)C(=O)[C@H](C)NC(=O)[C@@H](C)NC(=O)[C@@H](CC(C)C)N(C)C(=O)[C@@H](C(C)C)NC(=O)[C@H](CC(C)C)N(C)C(=O)[C@@H](C)N(C)C1=O` [Compound 20, [(2S,3R,4R)-3-Hydroxy-7-(1-methyl-1H-imidazol-4-yl)-4-methyl-2-(methylamino)heptanoic acid]^1 [(R)-methyl-Sar]^3 cyclosporin A], the inhibition constant Ki in data set [1] amounted to 5.7 nM. Moreover, the IC50 in data set [2] was above 10000 nM. The solubility at 18 h in data set [3] is above 100 µM.

As to `CC[C@H]1NC(=O)[C@@H]([C@H](O)[C@H](C)CCCc2ccncc2)N(C)C(=O)[C@@H](C(C)C)N(C)C(=O)[C@@H](CC(C)C)N(C)C(=O)[C@@H](CC(C)C)N(C)C(=O)[C@H](C)NC(=O)[C@@H](C)NC(=O)[C@@H](CC(C)C)N(C)C(=O)[C@@H](C(C)C)NC(=O)[C@H](CC(C)C)N(C)C(=O)[C@@H](C)N(C)C1=O` [Compound 15, [(2S,3R,4R)-3-Hydroxy-4-methyl-2-(methylamino)-7-(pyridin-4-yl)-heptanoic acid]^1 [(R)-methyl-Sar]^3 cyclosporin A], the inhibition constant Ki in data set [1] came to 2.5 nM. The IC50 in data set [2] came out at 1600 nM. The compound also came in with a solubility at 18 h in data set [3] of 50 to 75 µM (≈ 64.1 to 96.1 µg/mL).

Take `CC[C@H]1NC(=O)[C@@H]([C@H](O)[C@H](C)CCCc2ccnc(C)c2)N(C)C(=O)[C@@H](C(C)C)N(C)C(=O)[C@@H](CC(C)C)N(C)C(=O)[C@@H](CC(C)C)N(C)C(=O)[C@H](C)NC(=O)[C@@H](C)NC(=O)[C@@H](CC(C)C)N(C)C(=O)[C@@H](C(C)C)NC(=O)[C@H](CC(C)C)N(C)C(=O)[C@@H](C)N(C)C1=O` [Compound 17, [(2S,3R,4R)-3-Hydroxy-4-methyl-2-(methylamino)-7-(2-methyl-pyridin-4-yl)-heptanoic acid]^1 [(R)-methyl-Sar]^3 cyclosporin A]: in data set [1], the inhibitory constant (Ki) was 3.9 nM. The IC50 in data set [2] came to 9250 nM. For the same compound, the solubility at 18 h in data set [3] lay within 25 to 50 µM (≈ 32.4 to 64.8 µg/mL).

For the compound `CC[C@H]1NC(=O)[C@@H]([C@H](O)[C@H](C)CCCc2ccnn2C)N(C)C(=O)[C@@H](C(C)C)N(C)C(=O)[C@@H](CC(C)C)N(C)C(=O)[C@@H](CC(C)C)N(C)C(=O)[C@H](C)NC(=O)[C@@H](C)NC(=O)[C@@H](CC(C)C)N(C)C(=O)[C@@H](C(C)C)NC(=O)[C@H](CC(C)C)N(C)C(=O)[C@@H](C)N(C)C1=O` [Compound 23, [(2S,3R,4R)-3-Hydroxy-4-methyl-2-(methylamino)-7-(2-methylpyrazol-3-yl)-heptanoic acid]^1 [(R)-methyl-Sar]^3 cyclosporin A], the Ki in data set [1] came to 2.1 nM. For the same compound, the 50% inhibitory concentration (IC50) in data set [2] is 3340 nM. In addition, the solubility at 18 h in data set [3] was above 100 µM.

`CC[C@H]1NC(=O)[C@@H]([C@H](O)[C@H](C)CCCc2nccn2C)N(C)C(=O)[C@@H](C(C)C)N(C)C(=O)[C@@H](CC(C)C)N(C)C(=O)[C@@H](CC(C)C)N(C)C(=O)[C@H](C)NC(=O)[C@@H](C)NC(=O)[C@@H](CC(C)C)N(C)C(=O)[C@@H](C(C)C)NC(=O)[C@H](CC(C)C)N(C)C(=O)[C@@H](C)N(C)C1=O` [Compound 26, [(2S,3R,4R)-3-Hydroxy-7-(1-methyl-1H-imidazol-2-yl)-4-methyl-2-(methylamino)heptanoic acid]^1 [(R)-methyl-Sar]^3 cyclosporin A]: the inhibition constant (Ki) in data set [1] is 12.2 nM. In addition, the IC50 in data set [2] is above 10000 nM. The solubility at 18 h in data set [3] is above 100 µM.
